Measured values: patent publication US20170313669A1, “LACTONE COMPOUNDS AND METHODS OF MAKING AND USING SAME” (THE SCRIPPS RESEARCH INSTITUTE, priority 2015, published 2017)

| Compound | melting point |
| --- | --- |
| CCCCCCCCCCCCCC1OC(=O)C1CCCCCC(N)=O (mixture of isomers) [Compound 17, (cis/trans)-6-(2-Oxo-4-tridecyloxetan-3-yl)hexanamide] | 98 to 101 °C |
| CCCCCCCCCCCCCC1OC(=O)/C1=C\CCCCCS(N)(=O)=O (centres unmarked) [Compound 16, (Z)-6-(2-Oxo-4-tridecyloxetan-3-ylidene)hexane-1-sulfonamide] | 79 to 80 °C |

Other lines, results leading:

| melting point | Compound |
| --- | --- |
| 61 to 62 °C | CCCCCCCCCCCCCC1OC(=O)/C1=C\c1ccccc1 (centres unmarked) [Compound 3, (Z)-3-benzylidene-4-tridecyloxetan-2-one] |
| 34 to 35 °C | CCCCCCCCCCCCCC1OC(=O)/C1=C\CCCCc1ccccc1 (centres unmarked) [Compound 4, (Z)-3-(5-phenylpentylidene)-4-tridecyloxetan-2-one] |
| 93 to 94 °C | NC(=O)CCCC/C=C1\C(=O)OC1CCCCCCCCCc1ccccc1 (centres unmarked) [Compound 15, (Z)-6-(2-Oxo-4-(9-phenylnonyl)oxetan-3-ylidene)hexanamide] |
